# Data from patent US6730332B2, “Herbal composition having antiallergic properties and a process for the preparation thereof” (Natural Remedies Pvt. Ltd., priority 2000, dated 2004).
# How the values were obtained:
# mast cells = assay: mast cell stabilization bioassay; assay type: cell-based, rats
# From the text: The present invention is based on our experience and knowledge about the usage of various herbs along with our in depth studies on traditional literature. For this project a number of plants and plant preparations were selected for detailed studies. The selected plants/extracts were then subjected to the mast cell stabilization bioassay. This bioassay has been reported to be one of the important tools in detecting the substances having antiallergic activity. In this context reference may be made to “Rajashekharan M. et al, J. Drug Dev., 1989, 2(3), 179-182.” Mast cells are basophilic cells in subcutaneous and connective tissue. They are found in large numbers in mesentery of rats and contain numerous membrane bounded granules, which contain strong pharmacologically active mediators such as histamine, SRS-A, Serotonin, bradykinin etc. The role of mast cells in pathogenesis of allergic disease has been well recognized. Mast cells contain receptors for Fc fragment of IgE antibodies. Therefore, IgE antibodies formed on exposure to antigen will combine with the mast cells. On subsequent re-exposure to the same antigen, there occurs an antigen antibody reaction which will initiate mast cell de-granulation in a similar manner as that of de-granulating agents like carbachol or the compound which is the condensation product of N-methyl-p-methoxyphenylamine with formaldehyde. […]
# mouse paw edema = assay: Compound 48/80 induced mouse paw edema; assay type: in vivo, mice; conditions: 1 mg/kg mouse body weight, P<0.05
# Description: Compound 48/80 (Condensation product of N-methyl-p-methoxyphenylamine with formaldehyde) was used to induce mouse paw edema in mice. In this context the reference may be made to Nair A M, Tamhankar C P and Saraf M N (1995) Indian drugs, 32(6), 277-282. The animals were treated with NR-A2 at doses of 175, 225 and 275 mg/kg body weight orally 30 days prior to the test. Standard group received Ketotifen in the dose of 1 mg/kg b.w.
# [1] = tested on: Freund's adjuvant induced paw edema; assay: Adjuvant induced arthritis; assay type: in vivo, albino wistar rats; conditions: standard, rats, P<0.05
# Description: Freund's adjuvant is a mixture of dead mycobacterium finely ground in liquid paraffin at a concentration of 5 mg/ml. When injected in hind paw it produces an edema characterised as a bi-phasic response, which persists up to 21 days. The injection of Freund's adjuvant in rat hind paw produces conditions similar to rheumatoid arthritis, a delayed hypersensitivity reaction.
# NR-A2 was administered to albino wistar rats orally at doses of 150, 250 and 350 mg to body weight for 30 days before and 21 days after injecting Freund's adjuvant. Paw volume was measured using plethesmograph.
# active paw anaphylaxis = assay: Active paw anaphylaxis in mice; assay type: in vivo; conditions: 14 mg/kg body weight, P<0.05
# Description: Active paw anaphylaxis in mice was studied using egg albumin as the antigen adsorbed on aluminum hydroxide. In this context the reference may be made to Ghoosi R. B, Bhide M. B, (1981) Allergy Appl. Immunol., 15, 53. and Nair A. M. et al. (1995) Indian Drugs, 32(6), 277-282. The mice were dosed with NR-A2 at different doses orally in 0.5% CMC for 30 days. Prednisolone was taken as the standard. On 31st day they were sensitized with antigen, and the treatment continued. On 12^Th day after sensitization the animals were re-challenged with egg albumin in saline subcutaneously in plantar region of right hind paw while the contralateral paw received an equal volume of saline. Paw thickness was measured using pocket thickness gauge (Mitutoyo Manufacturing Co. Japan) 15 minutes after the challenge. The difference in paw thickness of right paw compared to the left paw, reflected the edema due to antigen-antibody reaction.
# systemic anaphylaxis = assay: Compound 48/80 induced systemic anaphylaxis in rats; assay type: in vivo; conditions: 10 mg/kg
# From the text: The effect of NR-A2 in compound 48/80 (Condensation product of N-methyl-p-methoxyphenylamine with formaldehyde) induced systemic anaphylaxis was studied in rats. In this context the reference may be made to Y. M. Lee, Kim D. K, (1996) Journal of Ethnopharmacology, 54, 77-84. The animals were divided into five groups, one served as control, one standard and three groups for NR-A2. The standard (Prednisolone), NRA-2 & vehicle were given 30 days prior to intra-peritoneal administration of compound 48/80 (Condensation product of N-methyl-p-methoxyphenylamine with formaldehyde). The dose of Prednisolone was 10 mg/kg while those of NR-A2 were 150, 250, 350 mg/kg b.w. Number of deaths per group within one hour were calculated.
compound,measurement,setting,value
O=C([O-])c1cc(=O)c2c(OCC(O)COc3cccc4oc(C(=O)[O-])cc(=O)c34)cccc2o1.[Na+].[Na+] [Disodiumchromoglycate],EC50 values,"mast cells; mast cell stabilization assay, screening of plant extracts (Table 1)",3.68 µg/mL
same,"EC50, mast cell stabilizing activity",mast cells; selected prototypes (Table 2),3.66 µg/mL
CN1CCC(=C2c3ccccc3CC(=O)c3sccc32)CC1 [Ketotifen],inhibition of paw edema,mouse paw edema,64.22%
C[C@]12C=CC(=O)C=C1CC[C@@H]1[C@@H]2[C@@H](O)C[C@@]2(C)[C@H]1CC[C@]2(O)C(=O)CO [Prednisolone],inhibition of adjuvant paw edema,[1],95.63%
same,inhibition of paw edema,active paw anaphylaxis,74.03%
same,inhibition of compound 48/80 induced anaphylaxis (deaths within one hour),systemic anaphylaxis,62.97%
